Measurements as given in US8895717B2, “Delivery of siRNA by neutral lipid compositions” (The Board of Regents of the University of Texas System, priority 2005, dated 2014).
d = 2'-deoxy (DNA); r = 2'-OH (RNA)

Experiments:
SKOV3 cells = assay: Cytotoxicity assay (MTT), SKOV3; assay type: cell-based, human
Method: The medium was exchanged after 48 hours with increasing concentrations of docetaxel (obtained from Aventis Pharma, Bridgewater, N.J.) dissolved in ethanol (final concentration range, 0.1-10,000 nmol/L prepared in medium) or cisplatin (purchased from LKT Laboratories, Inc., St. Paul, Minn.) dissolved in water. After a 96-hour incubation, 50 μL of 0.15% 3-(4,5-dimethylthiazol-2-yl)-2,5-diphenyltetrazolium bromide was added to each well and incubated for 2 hours. The supernatant was removed, and cells were dissolved in 100 μL DMSO. The absorbance at 570 nm was recorded using a FALCON microplate reader (Becton Dickinson Labware, Bedford, Mass.), and cell survival expressed as a percent increase or decrease above control conditions, after subtracting blank A570 readings. The IC50 concentration was determined by finding the A570 reading midpoint between maximal and minimal readings and finding the chemotherapy concentration that intersects the growth curve at that A570 reading.

FAK = assay: In vivo down regulation of FAK by siRNA in DOPC (Western blot, IHC); set-up: species or system human; conditions: for FAK expression at the conclusion of the therapy studies: HeyA8, IHC
Method: (§1) siRNA for in vivo delivery was incorporated into the phospholipid 1,2-dioleoyl-sn-glycero-3-phosphatidylcholine (DOPC). DOPC and siRNA were mixed in the presence of excess tertiary-butanol at a ratio of […], as previously described (Landen et al., 2005). Tween-20 was added to the mixture at a ratio of 1:19. The mixture was vortexed, frozen in an acetone/dry ice bath, and lyophilized. Before in vivo administration, this preparation was hydrated with normal (0.9%) saline at a concentration of 15 μg/ml to achieve the desired dose of 150-200 μl per injection. To estimate the quantity of siRNA not taken up by liposomes free siRNA was separated from liposomes by using filter units with a 30,000 nominal molecular weight limit (Millipore Corp, Billerica, Mass.). The liposomal suspension was added to the filters and centrifuged at 5,000 g for 40 min at room temperature. Fractions were collected, the material trapped in the filter was reconstituted with 0.9% saline, and the amount of siRNA in the collected fraction and eluent were measured by spectrophotometry.
Cells were lysed in modified RIPA buffer (50 mM Tris, 150 mM NaCl, 1% triton, 0.5% deoxycholate plus 25 µg/ml leupeptin, 10 µg/ml aprotinin, 2 mM EDTA, and 1 mM sodium orthovanadate (Sigma Chemical Co, St. Louis, Mo.) as previously described (Sood et al., 2004; Sood et al., 2002). A sample was removed from culture dishes by cell scraping and centrifuged at 12,500 rpm for 30 min. The […] protein concentration of the supernatant was determined using a bicinchoninic acid protein assay reagent kit (Pierce, Rockford, Ill.), and whole cell lysates were analyzed by 7.5% SDS-PAGE. Samples were then transferred to nitrocellulose membrane by semi-dry transfer (BioRad Laboratories, Hercules, Calif.). Membranes were blocked with 5% nonfat milk, and incubated with 0.25 μg/mL anti-FAK antibody (Biosource, International Camarillo, Calif.) for 1 h at room temperature. Antibody was detected with 0.167 μg/mL HRP-conjugated anti-mouse secondary antibody (The Jackson Laboratory, Bar Harbor, Me.) and developed with an enhanced chemiluminescence detection kit (Pierce). Equal loading was confirmed by detection of β-actin (0.1 μg/ml, anti-β-actin antibody, Sigma Chemical). Densitometric analysis was performed using the Scion Imaging software (Scion Corporation, Frederick, Md.).
To evaluate the therapeutic effect of the combination of FAK siRNA and docetaxel in a mouse model, preliminary dose-response studies were performed experiments for FAK siRNA. HeyA8 cells were implanted i.p. and treatment was initiated 21 days following tumor injection when i.p. tumors could be assessed by palpation. Mice were randomly distributed into three groups (n=10 per group) and were treated with a single dose of PBS, control siRNA or FAK siRNA at 150 μg/kg in 200 μl volume. Following treatment, 3 mice were sacrificed at definite time-points (24 h, 48 h, 96 h and 6 days). Fluorescent IHC analysis was performed on any excised peritoneal cavity tumors as described below.
The inventors investigated the inhibition of FAK expression in combination with docetaxel and the in vivo therapeutic potential. Prior to initiating therapy studies, the ability of FAK-targeted siRNA incorporated in DOPC to down-regulate FAK in vivo was assessed. Nude mice bearing intraperitoneal HeyA8 tumors were injected with a single dose of FAK siRNA i.p., and tumors were harvested 1, 2, 4, and 6 days after injection for Western blot analysis and immunohistochemistry for assessing level of FAK expression. […] FAK expression was not affected by control siRNA. Twice weekly administration of siRNA (150 μg/kg) was selected as an exemplary dosing schedule for subsequent therapy experiments.

HeyA8-MDR cells = assay: In vivo therapy with DOPC-FAK siRNA, HeyA8-MDR model; set-up: species or system nude mice; conditions: for Incidence (%) / No. Nodules: siRNA in DOPC twice weekly, docetaxel 50 μg weekly
Method: as §1
To produce tumors, SKOV3ip1, Hey A8-MDR cells (1×10^6 cells/0.2 ml of HBSS) and Hey A8 cells (2.5×10^5 cells/0.2 ml of HBSS) were injected interperitoneally (i.p.) into the mice. For in vivo injections, cells were trypsinized and centrifuged at 1000 rpm for 7 minutes at 4° C., washed twice with PBS and reconstituted in serum-free Hank's balanced salt solution (HBSS, Life Technologies, Carlsbad, Calif.). Only single-cell suspensions with >95% viability, as determined by trypan blue exclusion, were used for the in vivo injections. Mice (n=10 per group) were monitored for adverse effects of therapy and were sacrificed on day 35 (SKOV3ip1) or day 28 (HeyA8 or HeyA8-MDR) or when any of the mice began to appear moribund. Mouse weight, tumor weight, and tumor distribution were recorded. Tissue specimens were snap frozen for lysate preparation, fixed in formalin for paraffin embedding or frozen on OCT compound (Miles, Inc., Elkhart, Ind.) for frozen slide preparation.
Based on the results of preliminary dose-response studies, a series of three separate therapy studies were initiated using the optimal FAK siRNA dosage. Tumor cells were injected i.p. and 7 days later, the mice were randomly assigned to five treatment groups: empty liposome twice weekly, non-specific control […] siRNA (3 μg) twice weekly, control FAK siRNA (3 μg) twice weekly in combination with 50 μg docetaxel weekly, FAK siRNA twice weekly and FAK siRNA (3 μg) twice weekly in addition to 50 μg docetaxel weekly.
Chemotherapy-resistance is a common clinical problem in the management of ovarian carcinoma. Despite high response rates with initial therapy, most patients develop recurrent tumors that are resistant to taxane and platinum chemotherapy (McGuire et al., 1996). […] Consequently FAK downregulation and its effects on sensitization of resistant tumors to chemotherapy, using the HeyA8-MDR cell line (FIG. 13C) was assessed. Therapy was started 7 days after injection of tumor cells into nude mice according to the 5 groups outlined above.

Substance | fold greater docetaxel cytotoxicity after FAK down-regulation (SKOV3 cells; SKOV3, siRNA 48 hours before docetaxel, at 50% cytotoxicity) | FAK expression at the conclusion of the therapy studies (FAK) | reduction in FAK levels (FAK; HeyA8 tumors, within 48 hours of a single dose in DOPC, Western blot) | persistence of FAK reduction (FAK; single dose in DOPC) | recovery of FAK expression (FAK; single treatment in DOPC) | reduction in tumor growth compared to control (HeyA8-MDR cells) | Incidence (%) (HeyA8-MDR cells) | No. Nodules (HeyA8-MDR cells) | effect on sensitivity to docetaxel (SKOV3 cells; all ovarian cancer cell lines tested) | FAK expression (FAK; single dose)
FAK siRNA: sense r(CCACCUGGGCCAGUAUUAU)d(TT), antisense r(AUAAUACUGGCCCAGGUGG)d(TT); for in vivo delivery incorporated into DOPC (sense CCACCUGGGCCAGUAUUAUTT; antisense AUAAUACUGGCCCAGGUGGTT; sugars from the 5' end r19 d2, backbone not given here) | ~5 fold | sustained suppression of FAK expression | > 80% | at least 4 days | began to return to basal levels by 6 days | about 44% | 70% | 2.1 | – | –
control siRNA: sense r(UUUUCCGAACGUGUCACGU)dTT, antisense r(ACGUGACACGUUCGGAGAA)dTT, no homology with human mRNA; in vivo in DOPC (sense UUUUCCGAACGUGUCACGUTT; antisense ACGUGACACGUUCGGAGAATT; sugars from the 5' end r19 d2, backbone not given here) | – | not suppressed | – | – | – | – | 90% | 4.4 | did not affect sensitivity of ovarian cancer cells to docetaxel | not affected
